The values below come from patent US20130072506A1, “6,8-DISUBSTITUTED PURINE COMPOSITIONS” (priority 2011, published 2013).

Test [1] deals with human skin fibroblast line ASF-2. In words: Senescence-specific beta-galactosidase staining. In kind it is cell-based. From the text:
B) Cellular parameters: • (4) Cellular morphology: to evaluate cytoplasmic and nuclear stability; • (5) Cytoskeleton organization: to evaluate the stability of the cytoskeleton; • (6) Appearance of senescence-specific β-galactosidase: to rule out pro-aging effects; • (7) Lysosomal staining (Neutral red); • (8) JC-1 Staining of Mitochondria: for evaluation of mitochondrial function; • (9) Rejuvenation studies: for evaluation of reversion effect from aged phenotype to young phenotype; and
(§1) All cell culture experiments were performed on early and mid passage cultures (about 20 to 40% lifespan completed) of normal human skin fibroblast line, designated ASF-2. In order to check the effects of test compounds on senescent cells, late passage cells with more than 90% lifespan completed were used. ASF-2 cell line was established from a mammary skin biopsy obtained from a young, non-smoking and healthy […] at the time of breast reduction operation. Normal culture conditions of medium (DMEM) containing antibiotics, 10% foetal calf serum, and incubation at 37° C. with 95% humidity were used. The effects of the test compounds were determined using the following procedures.

Test [2] shares this test system. The experiment in a line: Short-term growth of human skin fibroblasts. In kind it is cell-based. The following applies: for cellular growth: 200 to 500 μM. Here is the method:
Experimental Procedures. A stock solution of 4 mM for 6-furfurylamino-8-aminopurine and 8 mM for other compounds were prepared by dissolving about […] per ml 1N HCl, followed by its appropriate dilution by the addition of Hank's buffer. The stock solution was filter sterilized, stored at 4° C., and was used for experiments by dilution it in the cell culture medium as required.
as §1
Growth characteristics. Short-term growth experiments were performed using 24-well tissue culture plates (growth area 1.9 cm^2). Freshly prepared cell suspensions from mass cultures of ASF-2 cells maintained in our labs were used. About 10,000 cells were seeded into 6 sets of 24-well plates. The cells were allowed to attach and stabilize for 24 hr in normal culture medium to achieve various final concentrations (range 40 to 500 μM). Culture medium was changed with the addition of test chemicals twice a week. The numbers of cells were counted after different days of treatment in 2 wells from each concentration of the test chemical, by following the normal method of cell trypsinization and counting using a Coultercounter. The third well in each category was fixed by cold methanol and stained with Giemsa stain for permanent record and for photography. The experiment was carried on for until the cultures became fully confluent and no further growth was possible.

Test [3] relates to Amaranthus caudatus cotyledon/hypocotyl explants. The experiment in a line: Amaranthus bioassay (betacyanin content). In kind it is in vivo, Amaranthus caudatus var. atropurpurea. Here is the method: Testing of Novel Compounds in Amaranthus bioassay. Standard Amaranthus bioassay was performed with several modifications. The seeds of Amaranthus caudatus var. atropurpurea were surface-sterilized in 10% N-chlorobenzene sulfonamide (w/v) for 10 min and washed 5 times in deionized water. They were placed in 14 cm Petri dishes containing paper tissues saturated with deionized water. After 72 hours of cultivation at 25° C. in darkness, the roots of the seedlings were cut off. The explants, consisting of two cotyledons and hypocotyls, were placed in 5 cm Petri dishes on two layers of filter paper soaked in 1 ml of incubation medium containing 10 μmol Na2HPO4—KH2PO4, pH 6.8, 5 μmol tyrosine and the cytokinin to be tested. There were 20 explants per dish. The procedure was carried out under a green safe light in a darkroom. After a 48 hours of incubation at 25° C. in darkness, betacyanin was extracted by freezing the explants in 4 ml 3.33 μM acetic acid. The concentration of betacyanin was determined by comparing the absorbance at 537 nm and 620 nm as follows: DA=A537nm−A620nm. From the obtained data, the concentration with highest activity was selected for each compound tested. Relative activity of the compound at this concentration was calculated (see Table 3 below). […] The values shown in Table 3 are means of five replicates and the entire test was repeated twice.
The cytokinins to be tested were dissolved in dimethylsulfoxide (DMSO) and the solution brought up to 10^−3 M with distilled water.

Test [4] deals with human skin fibroblast line ASF-2. The experiment in a line: Actin staining (cytoskeletal organization). In kind it is cell-based. Particulars: young cells, after 3 days, treated vs untreated. Here is the method: as §1
Actin staining. The pattern of cytoskeletal actin staining was studied by staining the cells with florescent ligand FITC-labelled Phalloidin, using a florescence microscope.

For test [5], the system named is SKH-1 hairless mice. In words: Hairless mouse assay: skin moisture content. In kind it is in vivo. From the text:
Evaluation of cutaneous effects of new topical compounds in the hirless mouse assay. The purpose of this study was to evaluate new topical compounds for their safety and efficacy as topical skin anti-aging treatments. The hairless mouse model is a well established model for studying the treatments of photoaging. […] The present study was used to investigate a new class of anti-aging compounds in comparison to classical ones. […] Topical compounds and vehicle controls were be applied daily (Monday-Friday) for 3 weeks to the dorsal skin of hairless mice. At baseline (prior to the 1st treatment), and weekly, the dorsal skin was measured for: transepidermal water loss (TEWL); skin moisture content; and skin elasticity.
Experimental Design. 48 female SKH-1 hairless mice (5 weeks old, 20-25 grams, Charles River Laboratories, Wilmington, Mass.) are individually housed in filter-top cages, and acclimated for 5-7 days after delivery. The mice are divided into 8 treatment groups (n=6), including two different control groups (untreated control, vehicle control) and a therapeutic control (tretinoin 0.05% Renova™ cream). Cage cards are marked to indicate treatment groups 1-8. Water and mouse chow are provided ad libitum.
Skin Moisture Content & Elasticity. The measurements of skin moisture content and skin elasticity are important noninvasive methods used to characterize the effects of moisturizers and anti-wrinkle effects on skin. A DermaLab™ combination instrument were used to measure the skin moisture content and elasticity of the target skin sites at baseline and at weekly intervals. This instrument is equipped with dual probes which are placed on the skin surface and a quantitative measurement taken of the respective parameters and the measurements recorded on an integrated computer. Mean measurements was determined for each treatment group over time, and comparative statistics used to evaluate product effectiveness.
Topical Treatments. Beginning on Treatment Day 1, test products are applied topically each morning (Monday through Friday) after erythema evaluations for 3 weeks. Using a positive displacement pipette, 20 mg of each agent is applied to a 2 cm×2 cm area of the center midline of the back. The material was spread across the treatment area with the pipette tip.

Test [6] deals with lysosomes of human skin fibroblasts. The experiment in a line: Lysosomal staining (Neutral Red). The following applies: treated cells compared to the controls. In kind it is cell-based. Here is the method: as §1
Lysosomal activity. Neutral Red is preferentially taken up into the lysosomes of the cell. Fibroblast cells are maintained in culture and exposed to test compounds over a range of concentrations. The cultures are visually examined after 72 hours, and the number of viable cells and/or the total cell protein content determined, after 72 hours exposure, by the Neutral Red Uptake method. Advantage of Neutral Red assay is that it detects only viable cells. Any material having a localized effect upon the lysosomes will, therefore, result in an artificially low (or possibly high) reflection of cell viability and cell number. […]

In the case of `Nc1nc2c(NCc3ccco3)ncnc2[nH]1` [Compound 82, 6-furfurylamino-8-aminopurine], the “number of prematurely senescent cells (beta-galactosidase staining)” value in test [1] is on record as “did not show any increase”. Also, in test [2] (80 μM vs untreated), the Cell growth entry is “similar”. Also, the cellular growth entry in test [2] is listed as “significantly inhibited”; in test [2] (after 9 days) it was “almost a total inhibition”. Moreover, the “Activity (%)” value in test [3] (at concentration with highest activity, activity of kinetin set at 100%) turned out to be 147.45%. In test [3] (betacyanin content, 48 hours in darkness), the “Concentration with highest activity” value is 10^−4 mol/l. Moreover, in test [4], the actin staining pattern result is “no obvious differences”. Also, in test [5] (at week 3), the mean moisture content result was “most effective”. The average moisture content entry in test [5] (compared with the vehicle) is on record as “higher than that of the vehicle”. The “lysosomes (Neutral Red staining)” value in test [6] is “larger and more numerous”.
